Type in all cases: in vivo
Experiment [1] concerns Katinka plum. As to the kind of experiment: Spray of plum trees at petal fall (BBCH stage 69), fruit set, yield, fruit weight. The settings on record: at harvest. The protocol: Trees of Katinka plum were sprayed at petal fall (BBCH stage 69) with 500 ppm or 1000 ppm ABA or left untreated (Table 4). Percent fruit set, average yield and average fruit weight were determined at harvest. Spraying Katinka plum trees with ABA reduced fruit set percentage and yield per tree and increased average fruit weight (Table 4).

A further experiment deals with PF-27 peach trees. Briefly: Foliar spray of peach tree limbs at shuck split stage, fruit retention. The settings on record: 1000 ppm, sprayed to runoff. The text has this: Limbs of PF-27 peach trees with fruit at the shuck split stage were flagged; the number of fruit distal to the flagging was counted. The limbs were sprayed to runoff with either water or 1000 ppm abscisic acid (S-ABA; ABA; S-(+)-abscisic acid; +-ABA, (+)-(S)-cis,trans-abscisic acid,(+)-(S)-cis,trans-ABA; S-ABA; (S)-5-(1-hydroxy-2,6,6,-trimethyl-4-oxo-2-cyclohexen-1-yl)-3-methyl-(2Z,4E)-pentadienoic acid; CAS no. 21293-29-8). After 8 and 19 days the fruit were re-counted and the percent fruit retention was determined. Limbs treated with 1000 ppm ABA retained less fruit than limbs treated with water 19 days following treatment (Table 1).

For experiment [2], the system named is European seedless cucumber (var. Flamingo) plants. Briefly: Foliar spray of greenhouse cucumber plants, fruit abortion. The note with it: 100 ppm, sprayed to drip at 20 node growth stage. As to the method:
European seedless cucumber (var. Flamingo) plants were grown in a greenhouse. At the 20 node growth stage the plants were sprayed to drip with ABA (100 ppm) solution or left unsprayed (control). ABA treated plants had twice the rate of fruit abortion compared to the control plants (Table 6).

The next experiment relates to Cacaks plum. Briefly: Spray of plum trees at petal fall (BBCH stage 69), fruit set, yield, fruit weight. The settings on record: at harvest. The protocol: Trees of Cacaks plum were sprayed at petal fall (BBCH stage 69) with 500 ppm or 1000 ppm ABA or left untreated (Table 3). Percent fruit set, average yield and average fruit weight were determined at harvest. Spraying Cacaks plum trees with ABA reduced fruit set percentage and yield per tree and increased average fruit weight (Table 3).

Another experiment has as its system Cacaks Schone plum. As to the kind of experiment: Spray of plum trees at fruitlet set stage, fruit set and fruit size. The settings on record: 600 ppm at fruitlet set stage. As to the method:
(§1) Trees of Cacaks Schone plum and Katinka plum were sprayed with 600 ppm ABA at the fruitlet set stage or left untreated. The number of fruit per flower was determined after the normal fruit drop period had ended. At harvest the weight per 100 fruits was measured for both the ABA treated and the untreated trees. Spraying Cacaks Schone or Katinka plum trees with ABA at the fruitlet set stage reduced the number of fruits per flower and increased the average fruit weight compared to untreated trees (Table 2).

Experiment [3] concerns Katinka plum. The experiment is described as above. The settings on record: 600 ppm at fruitlet set stage. The protocol:
as §1

A further experiment deals with Lady Elana Apricot. Briefly: Spray of trees at petal fall (BBCH stage 69), fruit set. The settings on record: 1000 ppm at petal fall; at harvest. As to the method: (§2) Trees of Lady Elana Apricot and Elegant Lady Peach were sprayed at petal fall (BBCH stage 69) with 1000 ppm ABA or left untreated (Table 5). Percent fruit set was determined at harvest. Spraying Lady Elana Apricot and Elegant Lady Peach trees with ABA reduced percent fruit set (Table 5).

A further experiment relates to Elegant Lady Peach. The description is as above. The settings on record: 1000 ppm at petal fall; at harvest. The protocol: as §2

For “(S)-5-(1-hydroxy-2,6,6,-trimethyl-4-oxo-2-cyclohexen-1-yl)-3-methyl-(2Z,4E)-pentadienoic acid [ABA]”, the “% Fruit set” value in the experiment with Katinka plum [1] (500 ppm at petal fall) came out at 28%; in the experiment with Katinka plum [1] (1000 ppm at petal fall), 21%; with Cacaks plum (500 ppm at petal fall) it was 20%; with Cacaks plum (1000 ppm at petal fall), 11%; with Lady Elana Apricot, 33%; in the experiment on Elegant Lady Peach, 36%. For the same substance, the Fruit weight amounted to 26.2 g with Katinka plum [1] (500 ppm at petal fall), 28.0 g in the experiment with Katinka plum [1] (1000 ppm at petal fall), 14.5 g with Cacaks plum (500 ppm at petal fall) and 14.6 g in the experiment on Cacaks plum (1000 ppm at petal fall). The Yield with Katinka plum [1] (500 ppm at petal fall) turned out to be 4.2 kg/tree; with Katinka plum [1] (1000 ppm at petal fall), 4.4 kg/tree; with Cacaks plum (500 ppm at petal fall), 8.0 kg/tree; in the experiment on Cacaks plum (1000 ppm at petal fall) it was 7.0 kg/tree. In addition, the percent fruit retention in the experiment on PF-27 peach trees (8 days after treatment) came out at 97%; with PF-27 peach trees (19 days after treatment), 69%. Moreover, the “Percentage of basal 18 cucumber fruits per plant that aborted” value in experiment [2] is recorded as 68%. Also, the “rate of fruit abortion compared to the control plants” value in experiment [2] is “twice”. In addition, the figures for the Fruit/flower in the experiment with Cacaks Schone plum (after normal fruit drop period) and in the experiment on Katinka plum [3] (after normal fruit drop period) were 0.09 and 0.45, respectively. The figures for the 100 fruit weight in the experiment on Cacaks Schone plum (at harvest) and with Katinka plum [3] (at harvest) were 2.23 kg and 2.35 kg, respectively.
